# Several values for one entry are separate records, joined by “and”; a condition that tells them apart may be missing. Equal values may be shown once. Read-outs that look alike come from different tables or passages of the source.
# Key:
# [1] = test system: circulating tumour cells (CTCs)
# Description: (§1) Depending on the dose, the infusion therapy was applied for 3-5 hours.
# [2] = test system: leukocytes / dysfunctional leukocyte precursors
# Description: as §1
# [3] = Clinical observation of patients during and after choline infusion therapy (vital parameters, tolerability, condition)
# [4] = test system: circulating tumour cells (CTCs) in the blood; conditions: in vitro; tumour cells in blood of 13 patients (breast, colon, prostate, pancreas cancer); MAINTRAC
# Description: This method allows the detection of smallest amounts of tumour cells in blood and other body fluids (Pachmann K., Clement J. H., Schneider C.-P., Willen B., Camara O., Pachmann U., Hoeffken K., Standardized quantification of circulating peripheral tumour cells from lung and breast cancer. Clin. Chem. Lab-Med., 2005, 43; 617-627).
# [5] = Gastric CA, one i.v. choline therapy for 3 to 5 hours, MainTrac
# [6] = Histiocytoma, one i.v. choline therapy for 3 to 5 hours, MainTrac
# [7] = Prostate CA, one i.v. choline therapy for 3 to 5 hours, MainTrac
# [8] = mean over all tumour types of Table 1, one i.v. choline therapy for 3 to 5 hours, MainTrac
# [9] = mean of Table 2 leukaemia measurements, one i.v. choline therapy for 3 to 5 hours
smiles,measurement,setting,value
C[N+](C)(C)CCO [choline],CTCs after therapy,"[1]; Gastric CA, after one i.v. choline therapy for 3 to 5 hours, MainTrac",1.75 million tumour cells
same,CTCs After − before Difference (Δ),[1]; [5],−12.25 million tumour cells
same,CTCs After − before Δ % before,[1]; [5],−87.00%
same,CTCs after therapy,"[1]; Histiocytoma, after one i.v. choline therapy for 3 to 5 hours, MainTrac",65.00 million tumour cells
same,CTCs After − before Difference (Δ),[1]; [6],−307.50 million tumour cells
same,CTCs After − before Δ % before,[1]; [6],−82.00%
same,CTCs after therapy,"[1]; Pancreas CA, after one i.v. choline therapy for 3 to 5 hours, MainTrac",3.00 million tumour cells and 2.75 million tumour cells
same,CTCs after therapy,"[1]; Prostate CA, after one i.v. choline therapy for 3 to 5 hours, MainTrac",8.75 million tumour cells
same,CTCs After − before Difference (Δ),[1]; [7],−3.75 million tumour cells
same,CTCs After − before Δ % before,[1]; [7],−30.00%
same,"After − before Δ% before (after 4 weeks), mean values","[1]; Table 3 mean of leukaemia patient leukocytes and breast cancer patient CTCs, 4 weeks later",−40.00%
same,"After − before Δ% before, mean values","[1]; Table 3 mean of leukaemia patient leukocytes and breast cancer patient CTCs, directly after therapy",−30.00%
same,"MainTrac (CTCs), After 4 weeks value","[1]; breast cancer patient, after another 4 weeks without therapy",5.25 million tumour cells
same,"MainTrac (CTCs), After − before Δ% before (after 4 weeks)","[1]; breast cancer patient, after another 4 weeks without therapy, relative to initial value",−72.00%
same,"CTCs after therapy, mean value","[1]; mean over all tumour types of Table 1, after one i.v. choline therapy for 3 to 5 hours, MainTrac",9.75 million tumour cells
same,"CTCs After − before Difference (Δ), mean value",[1]; [8],−37 million tumour cells and −37.00 million tumour cells
same,"CTCs After − before Δ % before, mean value",[1]; [8],−54.6%
same,"Leukocytes, After 4 weeks value","[2]; leukaemia patient blood, 4 weeks after one i.v. choline therapy",281.60
same,"Leukocytes, After − before Δ% before (after 4 weeks)","[2]; leukaemia patient blood, 4 weeks after one i.v. choline therapy, compared to the initial value",−8%
same,"Leukocytes after therapy, mean values","[2]; mean of Table 2 leukaemia measurements, after one i.v. choline therapy for 3 to 5 hours",228.53
same,"Leukocytes After − before Difference (Δ), mean values",[2]; [9],−25.77
same,"Leukocytes After − before Δ % before, mean values",[2]; [9],−10.00%
same,"changes in vital parameters (RR, pulse, SO2, ECG, temperature)","[3]; 9 tumour patients, during and subsequent to i.v. infusion therapy of 3-5 hours",no patient showed relevant changes in the vital parameters
same,tolerability of the infusion therapy,"[3]; 9 tumour patients, i.v. infusion for 3-5 hours",very well tolerated
same,side effects,"[3]; in some cases, on the following day, in general only during few hours, depending on the dose",nausea and increased temperature
same,cytosensitivity to choline,[4],up to 95%

# From patent publication US20130058922A1 (priority 2009, published 2013)
